Target: Muscarinic acetylcholine receptor M3 (Homo sapiens, UniProt P20309)
Assay: not given
Conditions: not given

Sequence of Muscarinic acetylcholine receptor M3 (Homo sapiens, UniProt P20309) (P20309 whole entry): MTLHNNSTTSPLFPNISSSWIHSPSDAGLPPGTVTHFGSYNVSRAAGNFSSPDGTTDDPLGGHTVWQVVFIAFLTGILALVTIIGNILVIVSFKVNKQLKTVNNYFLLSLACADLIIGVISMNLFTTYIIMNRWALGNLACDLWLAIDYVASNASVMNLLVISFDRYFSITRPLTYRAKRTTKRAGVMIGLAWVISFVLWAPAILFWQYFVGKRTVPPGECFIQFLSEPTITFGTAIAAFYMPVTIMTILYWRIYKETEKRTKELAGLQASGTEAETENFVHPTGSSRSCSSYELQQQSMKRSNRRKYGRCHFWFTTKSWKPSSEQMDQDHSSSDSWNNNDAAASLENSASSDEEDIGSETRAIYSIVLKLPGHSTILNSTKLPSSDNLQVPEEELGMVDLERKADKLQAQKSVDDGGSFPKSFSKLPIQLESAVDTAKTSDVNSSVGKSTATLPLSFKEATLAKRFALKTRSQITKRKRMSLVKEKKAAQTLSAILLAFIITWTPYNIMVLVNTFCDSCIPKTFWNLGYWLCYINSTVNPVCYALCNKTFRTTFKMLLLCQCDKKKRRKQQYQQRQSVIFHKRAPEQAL

Compound	Ki [nM]
O=C(c1ccc(CCNC[C@H](O)c2ccc(O)c3[nH]c(=O)ccc23)cc1)N1CCC(c2cccc([C@](O)(C(=O)OCC3CCN(Cc4ccccc4)CC3)c3ccccc3)c2)CC1	0.0631
O=C(NCc1ccc(-c2cccc([C@](O)(C(=O)OCC3CCN(Cc4ccccc4)CC3)c3ccccc3)c2)s1)c1ccc(CNC[C@H](O)c2ccc(O)c3[nH]c(=O)ccc23)cc1	0.251
O=C(NCCCNC[C@H](O)c1ccc(O)c2[nH]c(=O)ccc12)c1ccc(COc2cccc([C@](O)(C(=O)OCC3CCN(Cc4ccccc4)CC3)c3ccccc3)c2)cc1	0.251
O=C(NCCCOc1cccc([C@](O)(C(=O)O)c2ccccc2)c1)c1ccc(CNC[C@H](O)c2ccc(O)c3[nH]c(=O)ccc23)cc1	> 50.1
O=C(NCCCCNC[C@H](O)c1ccc(O)c2[nH]c(=O)ccc12)c1ccc(CNC2(C(=O)OCC3CCN(Cc4ccccc4)CC3)CCc3ccccc32)s1 (mixture of isomers; 32)	3.98
O=C(NCCCNC[C@H](O)c1ccc(O)c2[nH]c(=O)ccc12)c1ccc(COc2cccc([C@@](O)(C(=O)OCC3CCN(Cc4ccccc4)CC3)c3ccccc3)c2)cc1	3.16
CN1CCC(COC(=O)[C@](O)(c2ccccc2)c2cccc(OCCCNC(=O)c3ccc(CNC[C@H](O)c4ccc(O)c5[nH]c(=O)ccc45)cc3)c2)CC1	0.501
O=C(NCCCCNC[C@H](O)c1ccc(O)c2[nH]c(=O)ccc12)c1ccc(CNC2(C(=O)O[C@H]3CN4CCC3CC4)CCc3ccccc32)cc1 (mixture of isomers)	0.126

System: not listed separately
Assay: in vitro
Conditions: guinea pig, lung S9 fraction
Description: Stability in guinea pig lung S9 fraction assessed as half-life at 1 uM incubated for 60 mins by LC-MS/MS analysis

Compound	half-life at 1 h, 1 µM [h]
O=C(c1ccc(CCNC[C@H](O)c2ccc(O)c3[nH]c(=O)ccc23)cc1)N1CCC(c2cccc([C@](O)(C(=O)OCC3CCN(Cc4ccccc4)CC3)c3ccccc3)c2)CC1	1.9
O=C(NCc1ccc(-c2cccc([C@](O)(C(=O)OCC3CCN(Cc4ccccc4)CC3)c3ccccc3)c2)s1)c1ccc(CNC[C@H](O)c2ccc(O)c3[nH]c(=O)ccc23)cc1	2.1

Target: Voltage-dependent L-type calcium channel subunit alpha-1C (Homo sapiens, UniProt Q13936)
Sequence (Q13936 whole entry): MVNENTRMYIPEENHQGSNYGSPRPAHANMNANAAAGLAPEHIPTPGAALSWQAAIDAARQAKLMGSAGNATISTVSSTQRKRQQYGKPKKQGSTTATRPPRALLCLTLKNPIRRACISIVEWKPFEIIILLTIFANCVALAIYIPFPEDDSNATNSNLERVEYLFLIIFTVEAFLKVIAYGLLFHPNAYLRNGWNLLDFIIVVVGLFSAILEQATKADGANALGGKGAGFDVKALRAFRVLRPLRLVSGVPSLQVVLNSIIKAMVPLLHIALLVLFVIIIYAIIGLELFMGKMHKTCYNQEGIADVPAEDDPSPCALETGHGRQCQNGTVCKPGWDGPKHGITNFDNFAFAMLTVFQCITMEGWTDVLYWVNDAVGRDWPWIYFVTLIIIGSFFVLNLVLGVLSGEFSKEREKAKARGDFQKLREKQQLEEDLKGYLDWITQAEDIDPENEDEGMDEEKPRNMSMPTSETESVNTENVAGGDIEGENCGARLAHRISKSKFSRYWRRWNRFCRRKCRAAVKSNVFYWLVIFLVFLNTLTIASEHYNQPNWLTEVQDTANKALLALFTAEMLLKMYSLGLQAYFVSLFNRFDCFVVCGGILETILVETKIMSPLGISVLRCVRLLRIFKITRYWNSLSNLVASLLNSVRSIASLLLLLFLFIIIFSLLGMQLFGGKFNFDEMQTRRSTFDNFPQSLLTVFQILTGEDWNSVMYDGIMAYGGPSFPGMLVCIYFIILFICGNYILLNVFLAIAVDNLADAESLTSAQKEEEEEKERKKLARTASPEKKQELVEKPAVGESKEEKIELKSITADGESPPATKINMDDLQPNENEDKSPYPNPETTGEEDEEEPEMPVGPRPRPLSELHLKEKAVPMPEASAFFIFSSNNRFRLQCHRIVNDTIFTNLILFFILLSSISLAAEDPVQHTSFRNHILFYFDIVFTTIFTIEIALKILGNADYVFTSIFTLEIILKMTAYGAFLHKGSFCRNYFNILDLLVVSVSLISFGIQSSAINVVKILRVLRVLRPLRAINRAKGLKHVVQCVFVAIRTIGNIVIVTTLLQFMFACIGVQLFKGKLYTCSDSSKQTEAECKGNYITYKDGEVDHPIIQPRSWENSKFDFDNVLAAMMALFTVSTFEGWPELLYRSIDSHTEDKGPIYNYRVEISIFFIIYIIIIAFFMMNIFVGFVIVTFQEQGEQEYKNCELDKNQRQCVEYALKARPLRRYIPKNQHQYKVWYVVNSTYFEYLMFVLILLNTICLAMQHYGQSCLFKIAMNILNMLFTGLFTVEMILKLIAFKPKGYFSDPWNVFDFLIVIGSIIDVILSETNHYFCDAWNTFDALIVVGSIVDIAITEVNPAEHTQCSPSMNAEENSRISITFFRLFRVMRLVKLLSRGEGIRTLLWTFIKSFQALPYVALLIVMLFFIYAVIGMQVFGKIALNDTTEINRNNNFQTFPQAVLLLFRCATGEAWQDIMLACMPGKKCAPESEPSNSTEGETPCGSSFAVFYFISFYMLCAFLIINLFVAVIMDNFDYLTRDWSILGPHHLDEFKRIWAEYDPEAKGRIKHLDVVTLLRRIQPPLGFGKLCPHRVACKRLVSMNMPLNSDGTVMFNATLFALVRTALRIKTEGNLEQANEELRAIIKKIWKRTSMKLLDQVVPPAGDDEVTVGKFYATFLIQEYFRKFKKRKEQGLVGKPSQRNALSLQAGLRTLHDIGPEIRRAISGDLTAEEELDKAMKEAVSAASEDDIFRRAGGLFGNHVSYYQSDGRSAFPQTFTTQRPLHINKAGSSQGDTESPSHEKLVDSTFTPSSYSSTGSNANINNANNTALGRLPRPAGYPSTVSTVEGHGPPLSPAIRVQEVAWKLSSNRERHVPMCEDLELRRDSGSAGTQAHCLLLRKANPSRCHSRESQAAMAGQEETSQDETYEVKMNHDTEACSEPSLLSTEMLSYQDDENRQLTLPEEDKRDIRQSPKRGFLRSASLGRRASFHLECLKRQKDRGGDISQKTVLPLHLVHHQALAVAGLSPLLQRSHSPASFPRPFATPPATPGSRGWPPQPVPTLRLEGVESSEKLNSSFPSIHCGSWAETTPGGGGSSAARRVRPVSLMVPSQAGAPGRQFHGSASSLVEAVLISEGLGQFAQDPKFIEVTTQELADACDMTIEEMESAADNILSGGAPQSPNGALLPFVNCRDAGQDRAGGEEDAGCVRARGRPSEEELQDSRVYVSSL
Assay: not given
Conditions: not given

Compound	IC50 [nM]
O=C(NCCCOc1cccc([C@](O)(C(=O)O)c2ccccc2)c1)c1ccc(CNC[C@H](O)c2ccc(O)c3[nH]c(=O)ccc23)cc1	> 150000

System: not listed separately
Assay: in vitro
Conditions: human, plasma
Description: Stability in human plasma assessed as half-life at 5 uM incubated for 120 mins by LC-MS/MS analysis

Compound	half-life at 2 h, 5 µM [h]
O=C(c1ccc(CCNC[C@H](O)c2ccc(O)c3[nH]c(=O)ccc23)cc1)N1CCC(c2cccc([C@](O)(C(=O)OCC3CCN(Cc4ccccc4)CC3)c3ccccc3)c2)CC1	> 2.5
O=C(NCc1ccc(-c2cccc([C@](O)(C(=O)OCC3CCN(Cc4ccccc4)CC3)c3ccccc3)c2)s1)c1ccc(CNC[C@H](O)c2ccc(O)c3[nH]c(=O)ccc23)cc1	> 2.5
O=C(NCCCCNC[C@H](O)c1ccc(O)c2[nH]c(=O)ccc12)c1ccc(CNC2(C(=O)OCC3CCN(Cc4ccccc4)CC3)CCc3ccccc32)s1 (mixture of isomers; 32)	> 2.5
CN1CCC(COC(=O)[C@](O)(c2ccccc2)c2cccc(OCCCNC(=O)c3ccc(CNC[C@H](O)c4ccc(O)c5[nH]c(=O)ccc45)cc3)c2)CC1	> 2.5

System: Trachea
Assay: Inhibition of carbachol-induced smooth muscle contraction in male albino Dunkin-Hartley guinea pig trachea
Conditions: Cavia porcellus, read-out: pIC50 (converted)

Compound	IC50 [nM]
O=C(NCCCNC[C@H](O)c1ccc(O)c2[nH]c(=O)ccc12)c1ccc(COc2cccc([C@](O)(C(=O)OCC3CCN(Cc4ccccc4)CC3)c3ccccc3)c2)cc1	0.126
O=C(NCCCCNC[C@H](O)c1ccc(O)c2[nH]c(=O)ccc12)c1ccc(CNC2(C(=O)OCC3CCN(Cc4ccccc4)CC3)CCc3ccccc32)s1 (mixture of isomers; 32)	0.0501
O=C(NCCCNC[C@H](O)c1ccc(O)c2[nH]c(=O)ccc12)c1ccc(COc2cccc([C@@](O)(C(=O)OCC3CCN(Cc4ccccc4)CC3)c3ccccc3)c2)cc1	0.02
O=C(NCCCCNC[C@H](O)c1ccc(O)c2[nH]c(=O)ccc12)c1ccc(CNC2(C(=O)O[C@H]3CN4CCC3CC4)CCc3ccccc32)cc1 (mixture of isomers)	1.58

System: not listed separately
Assay: in vitro
Conditions: rat, lung S9 fraction
Description: Stability in rat lung S9 fraction assessed as half-life at 1 uM incubated for 60 mins by LC-MS/MS analysis

Compound	half-life at 1 h, 1 µM [h]
O=C(c1ccc(CCNC[C@H](O)c2ccc(O)c3[nH]c(=O)ccc23)cc1)N1CCC(c2cccc([C@](O)(C(=O)OCC3CCN(Cc4ccccc4)CC3)c3ccccc3)c2)CC1	2.47
O=C(NCc1ccc(-c2cccc([C@](O)(C(=O)OCC3CCN(Cc4ccccc4)CC3)c3ccccc3)c2)s1)c1ccc(CNC[C@H](O)c2ccc(O)c3[nH]c(=O)ccc23)cc1	2.1

Same assay, conditions: rat, lung S9 fraction, t1/2

half-life at 1 h, 1 µM [h]	Compound
2.35	O=C(NCCCCNC[C@H](O)c1ccc(O)c2[nH]c(=O)ccc12)c1ccc(CNC2(C(=O)OCC3CCN(Cc4ccccc4)CC3)CCc3ccccc32)s1 (mixture of isomers; 32)

System: not listed separately
Assay: in vitro
Conditions: rat, plasma
Description: Stability in rat plasma assessed as half-life at 5 uM incubated for 120 mins by LC-MS/MS analysis

Compound	half-life at 2 h, 5 µM [h]
O=C(c1ccc(CCNC[C@H](O)c2ccc(O)c3[nH]c(=O)ccc23)cc1)N1CCC(c2cccc([C@](O)(C(=O)OCC3CCN(Cc4ccccc4)CC3)c3ccccc3)c2)CC1	0.533
O=C(NCc1ccc(-c2cccc([C@](O)(C(=O)OCC3CCN(Cc4ccccc4)CC3)c3ccccc3)c2)s1)c1ccc(CNC[C@H](O)c2ccc(O)c3[nH]c(=O)ccc23)cc1	> 2.5
CN1CCC(COC(=O)[C@](O)(c2ccccc2)c2cccc(OCCCNC(=O)c3ccc(CNC[C@H](O)c4ccc(O)c5[nH]c(=O)ccc45)cc3)c2)CC1	1.92

Same assay, conditions: rat, plasma, t1/2

half-life at 2 h, 5 µM [h]	Compound
0.5	O=C(NCCCCNC[C@H](O)c1ccc(O)c2[nH]c(=O)ccc12)c1ccc(CNC2(C(=O)OCC3CCN(Cc4ccccc4)CC3)CCc3ccccc32)s1 (mixture of isomers; 32)

System: not listed separately
Assay: in vitro
Conditions: human, hepatocytes
Description: Metabolic stability in human hepatocytes assessed as clearance measured per 10^6 cells at 1 uM incubated for 90 mins by LC-MS/MS analysis

Compound	hepatocyte CLint at 1.5 h, 1 µM [µL/min/1e6 cells]
O=C(c1ccc(CCNC[C@H](O)c2ccc(O)c3[nH]c(=O)ccc23)cc1)N1CCC(c2cccc([C@](O)(C(=O)OCC3CCN(Cc4ccccc4)CC3)c3ccccc3)c2)CC1	13
O=C(NCc1ccc(-c2cccc([C@](O)(C(=O)OCC3CCN(Cc4ccccc4)CC3)c3ccccc3)c2)s1)c1ccc(CNC[C@H](O)c2ccc(O)c3[nH]c(=O)ccc23)cc1	12
CN1CCC(COC(=O)[C@](O)(c2ccccc2)c2cccc(OCCCNC(=O)c3ccc(CNC[C@H](O)c4ccc(O)c5[nH]c(=O)ccc45)cc3)c2)CC1	< 2

Same assay, conditions: human, hepatocytes, CLH

hepatocyte CLint at 1.5 h, 1 µM [µL/min/1e6 cells]	Compound
13	O=C(NCCCCNC[C@H](O)c1ccc(O)c2[nH]c(=O)ccc12)c1ccc(CNC2(C(=O)OCC3CCN(Cc4ccccc4)CC3)CCc3ccccc32)s1 (mixture of isomers; 32)

Target: Beta-2 adrenergic receptor (Cavia porcellus, UniProt Q8K4Z4)
Sequence (Q8K4Z4 whole entry): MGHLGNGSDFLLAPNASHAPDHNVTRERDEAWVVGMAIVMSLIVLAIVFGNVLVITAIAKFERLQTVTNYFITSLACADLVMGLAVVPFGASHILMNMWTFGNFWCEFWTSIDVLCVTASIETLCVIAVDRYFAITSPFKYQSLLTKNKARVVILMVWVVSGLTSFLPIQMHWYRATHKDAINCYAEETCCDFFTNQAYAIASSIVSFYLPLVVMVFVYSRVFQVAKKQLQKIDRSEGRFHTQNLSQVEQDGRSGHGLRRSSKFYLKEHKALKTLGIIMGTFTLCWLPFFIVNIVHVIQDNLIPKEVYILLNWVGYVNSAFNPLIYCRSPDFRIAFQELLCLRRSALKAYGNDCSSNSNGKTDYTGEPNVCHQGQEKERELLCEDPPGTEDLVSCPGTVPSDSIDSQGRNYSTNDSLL
Assay: Agonist activity at beta2 adrenoceptor in male albino Dunkin-Hartley guinea pig trachea assessed as inhibition of histamine induced smooth muscle contraction
Conditions: not given

Compound	IC50 [nM]
O=C(c1ccc(CCNC[C@H](O)c2ccc(O)c3[nH]c(=O)ccc23)cc1)N1CCC(c2cccc([C@](O)(C(=O)OCC3CCN(Cc4ccccc4)CC3)c3ccccc3)c2)CC1	0.631
O=C(NCCCNC[C@H](O)c1ccc(O)c2[nH]c(=O)ccc12)c1ccc(COc2cccc([C@](O)(C(=O)OCC3CCN(Cc4ccccc4)CC3)c3ccccc3)c2)cc1	0.2
O=C(NCCCCNC[C@H](O)c1ccc(O)c2[nH]c(=O)ccc12)c1ccc(CNC2(C(=O)OCC3CCN(Cc4ccccc4)CC3)CCc3ccccc32)s1 (mixture of isomers; 32)	0.0251
O=C(NCCCNC[C@H](O)c1ccc(O)c2[nH]c(=O)ccc12)c1ccc(COc2cccc([C@@](O)(C(=O)OCC3CCN(Cc4ccccc4)CC3)c3ccccc3)c2)cc1	0.2
O=C(NCCCCNC[C@H](O)c1ccc(O)c2[nH]c(=O)ccc12)c1ccc(CNC2(C(=O)O[C@H]3CN4CCC3CC4)CCc3ccccc32)cc1 (mixture of isomers)	2.51

Target: Sodium channel protein type 5 subunit alpha (Homo sapiens, UniProt Q14524)
Assay: not given
Conditions: not given

Compound	IC50 [nM]
O=C(NCCCOc1cccc([C@](O)(C(=O)O)c2ccccc2)c1)c1ccc(CNC[C@H](O)c2ccc(O)c3[nH]c(=O)ccc23)cc1	> 150000

System: not listed separately
Assay: in vitro
Conditions: rat, hepatocytes
Description: Metabolic stability in rat hepatocytes assessed as clearance measured per 10^6 cells at 1 uM incubated for 90 mins by LC-MS/MS analysis

Compound	hepatocyte CLint at 1.5 h, 1 µM [µL/min/1e6 cells]
O=C(c1ccc(CCNC[C@H](O)c2ccc(O)c3[nH]c(=O)ccc23)cc1)N1CCC(c2cccc([C@](O)(C(=O)OCC3CCN(Cc4ccccc4)CC3)c3ccccc3)c2)CC1	36
O=C(NCc1ccc(-c2cccc([C@](O)(C(=O)OCC3CCN(Cc4ccccc4)CC3)c3ccccc3)c2)s1)c1ccc(CNC[C@H](O)c2ccc(O)c3[nH]c(=O)ccc23)cc1	50
CN1CCC(COC(=O)[C@](O)(c2ccccc2)c2cccc(OCCCNC(=O)c3ccc(CNC[C@H](O)c4ccc(O)c5[nH]c(=O)ccc45)cc3)c2)CC1	15

Same assay, conditions: rat, hepatocytes, CLH

hepatocyte CLint at 1.5 h, 1 µM [µL/min/1e6 cells]	Compound
44	O=C(NCCCCNC[C@H](O)c1ccc(O)c2[nH]c(=O)ccc12)c1ccc(CNC2(C(=O)OCC3CCN(Cc4ccccc4)CC3)CCc3ccccc32)s1 (mixture of isomers; 32)

Target: Muscarinic acetylcholine receptor M3 (Cavia porcellus, UniProt Q8VH26)
Sequence (Q8VH26 whole entry): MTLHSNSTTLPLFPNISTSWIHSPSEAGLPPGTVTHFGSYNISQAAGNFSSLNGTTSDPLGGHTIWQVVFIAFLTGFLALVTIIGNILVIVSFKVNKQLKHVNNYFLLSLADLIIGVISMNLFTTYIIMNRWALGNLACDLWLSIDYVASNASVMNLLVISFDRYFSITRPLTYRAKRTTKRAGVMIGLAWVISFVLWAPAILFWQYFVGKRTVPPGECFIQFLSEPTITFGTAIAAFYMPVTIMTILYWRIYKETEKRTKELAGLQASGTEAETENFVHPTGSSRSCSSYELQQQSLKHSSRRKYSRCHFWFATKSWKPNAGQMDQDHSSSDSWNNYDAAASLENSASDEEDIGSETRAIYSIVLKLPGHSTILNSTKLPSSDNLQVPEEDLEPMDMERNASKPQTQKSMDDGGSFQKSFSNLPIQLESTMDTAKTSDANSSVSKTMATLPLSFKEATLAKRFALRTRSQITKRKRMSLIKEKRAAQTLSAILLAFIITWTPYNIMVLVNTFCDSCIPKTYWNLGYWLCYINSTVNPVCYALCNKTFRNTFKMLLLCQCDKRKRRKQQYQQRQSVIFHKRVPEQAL
Assay: Antagonist activity at M3 receptor in male albino Dunkin-Hartley guinea pig trachea assessed as inhibition of carbachol-induced smooth muscle contraction in presence of propranolol
Conditions: not given

Compound	IC50 [nM]
O=C(c1ccc(CCNC[C@H](O)c2ccc(O)c3[nH]c(=O)ccc23)cc1)N1CCC(c2cccc([C@](O)(C(=O)OCC3CCN(Cc4ccccc4)CC3)c3ccccc3)c2)CC1	2
O=C(NCCCNC[C@H](O)c1ccc(O)c2[nH]c(=O)ccc12)c1ccc(COc2cccc([C@](O)(C(=O)OCC3CCN(Cc4ccccc4)CC3)c3ccccc3)c2)cc1	0.2
O=C(NCCCCNC[C@H](O)c1ccc(O)c2[nH]c(=O)ccc12)c1ccc(CNC2(C(=O)OCC3CCN(Cc4ccccc4)CC3)CCc3ccccc32)s1 (mixture of isomers; 32)	1
O=C(NCCCNC[C@H](O)c1ccc(O)c2[nH]c(=O)ccc12)c1ccc(COc2cccc([C@@](O)(C(=O)OCC3CCN(Cc4ccccc4)CC3)c3ccccc3)c2)cc1	5.01
O=C(NCCCCNC[C@H](O)c1ccc(O)c2[nH]c(=O)ccc12)c1ccc(CNC2(C(=O)O[C@H]3CN4CCC3CC4)CCc3ccccc32)cc1 (mixture of isomers)	3.16

Target: Voltage-gated inwardly rectifying potassium channel KCNH2 (Homo sapiens, UniProt Q12809)
Assay: not given
Conditions: not given

Compound	IC50 [nM]
O=C(NCCCOc1cccc([C@](O)(C(=O)O)c2ccccc2)c1)c1ccc(CNC[C@H](O)c2ccc(O)c3[nH]c(=O)ccc23)cc1	> 150000

Target: Beta-2 adrenergic receptor (Homo sapiens, UniProt P07550)
Sequence (P07550 whole entry): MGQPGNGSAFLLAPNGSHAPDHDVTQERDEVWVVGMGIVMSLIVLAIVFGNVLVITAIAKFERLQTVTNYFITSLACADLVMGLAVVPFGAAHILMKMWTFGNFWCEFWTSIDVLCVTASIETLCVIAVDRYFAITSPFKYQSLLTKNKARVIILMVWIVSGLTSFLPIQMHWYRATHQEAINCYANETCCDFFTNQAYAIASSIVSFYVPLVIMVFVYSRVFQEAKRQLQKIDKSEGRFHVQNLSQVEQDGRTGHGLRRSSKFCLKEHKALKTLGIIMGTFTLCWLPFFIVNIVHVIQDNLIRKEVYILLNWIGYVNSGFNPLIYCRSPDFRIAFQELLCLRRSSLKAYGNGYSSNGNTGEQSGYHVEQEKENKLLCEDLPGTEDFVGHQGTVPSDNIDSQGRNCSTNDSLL
Assay: not given
Conditions: not given

Compound	Ki [nM]
O=C(c1ccc(CCNC[C@H](O)c2ccc(O)c3[nH]c(=O)ccc23)cc1)N1CCC(c2cccc([C@](O)(C(=O)OCC3CCN(Cc4ccccc4)CC3)c3ccccc3)c2)CC1	0.398
O=C(NCc1ccc(-c2cccc([C@](O)(C(=O)OCC3CCN(Cc4ccccc4)CC3)c3ccccc3)c2)s1)c1ccc(CNC[C@H](O)c2ccc(O)c3[nH]c(=O)ccc23)cc1	2.51
O=C(NCCCNC[C@H](O)c1ccc(O)c2[nH]c(=O)ccc12)c1ccc(COc2cccc([C@](O)(C(=O)OCC3CCN(Cc4ccccc4)CC3)c3ccccc3)c2)cc1	0.02
O=C(NCCCCNC[C@H](O)c1ccc(O)c2[nH]c(=O)ccc12)c1ccc(CNC2(C(=O)OCC3CCN(Cc4ccccc4)CC3)CCc3ccccc32)s1 (mixture of isomers; 32)	0.0631
O=C(NCCCNC[C@H](O)c1ccc(O)c2[nH]c(=O)ccc12)c1ccc(COc2cccc([C@@](O)(C(=O)OCC3CCN(Cc4ccccc4)CC3)c3ccccc3)c2)cc1	0.0316
CN1CCC(COC(=O)[C@](O)(c2ccccc2)c2cccc(OCCCNC(=O)c3ccc(CNC[C@H](O)c4ccc(O)c5[nH]c(=O)ccc45)cc3)c2)CC1	0.0398
O=C(NCCCCNC[C@H](O)c1ccc(O)c2[nH]c(=O)ccc12)c1ccc(CNC2(C(=O)O[C@H]3CN4CCC3CC4)CCc3ccccc32)cc1 (mixture of isomers)	0.501

System: not listed separately
Assay: in vitro
Conditions: human, lung S9 fraction
Description: Stability in human lung S9 fraction assessed as half-life at 1 uM incubated for 60 mins by LC-MS/MS analysis

Compound	half-life at 1 h, 1 µM [h]
O=C(c1ccc(CCNC[C@H](O)c2ccc(O)c3[nH]c(=O)ccc23)cc1)N1CCC(c2cccc([C@](O)(C(=O)OCC3CCN(Cc4ccccc4)CC3)c3ccccc3)c2)CC1	3
O=C(NCc1ccc(-c2cccc([C@](O)(C(=O)OCC3CCN(Cc4ccccc4)CC3)c3ccccc3)c2)s1)c1ccc(CNC[C@H](O)c2ccc(O)c3[nH]c(=O)ccc23)cc1	1.47

Same assay, conditions: human, lung S9 fraction, t1/2

half-life at 1 h, 1 µM [h]	Compound
1.62	O=C(NCCCCNC[C@H](O)c1ccc(O)c2[nH]c(=O)ccc12)c1ccc(CNC2(C(=O)OCC3CCN(Cc4ccccc4)CC3)CCc3ccccc32)s1 (mixture of isomers; 32)

System: not listed separately
Assay: in vitro
Conditions: guinea pig, hepatocytes
Description: Metabolic stability in guinea pig hepatocytes assessed as clearance measured per 10^6 cells at 1 uM incubated for 90 mins by LC-MS/MS analysis

Compound	hepatocyte CLint at 1.5 h, 1 µM [µL/min/1e6 cells]
O=C(NCc1ccc(-c2cccc([C@](O)(C(=O)OCC3CCN(Cc4ccccc4)CC3)c3ccccc3)c2)s1)c1ccc(CNC[C@H](O)c2ccc(O)c3[nH]c(=O)ccc23)cc1	295

System: not listed separately
Assay: in vitro
Conditions: guinea pig, plasma
Description: Stability in guinea pig plasma assessed as half-life at 5 uM incubated for 120 mins by LC-MS/MS analysis

Compound	half-life at 2 h, 5 µM [h]
O=C(c1ccc(CCNC[C@H](O)c2ccc(O)c3[nH]c(=O)ccc23)cc1)N1CCC(c2cccc([C@](O)(C(=O)OCC3CCN(Cc4ccccc4)CC3)c3ccccc3)c2)CC1	0.267
O=C(NCc1ccc(-c2cccc([C@](O)(C(=O)OCC3CCN(Cc4ccccc4)CC3)c3ccccc3)c2)s1)c1ccc(CNC[C@H](O)c2ccc(O)c3[nH]c(=O)ccc23)cc1	0.217
CN1CCC(COC(=O)[C@](O)(c2ccccc2)c2cccc(OCCCNC(=O)c3ccc(CNC[C@H](O)c4ccc(O)c5[nH]c(=O)ccc45)cc3)c2)CC1	0.183

— ChEMBL document CHEMBL5500396, “Discovery, Multiparametric Optimization, and Solid-State Driven Identification of CHF-6550, a Novel Soft Dual Pharmacology Muscarinic Antagonist and β2 Agonist (MABA) for the Inhaled Treatment of Respiratory Diseases” (J Med Chem, 2024)
